Earlier results in patent US12551521B2, “Compositions including pine bark extract, berryfruit extract and a source of l-theanine and uses thereof” (AREPA IP LIMITED, priority 2017, dated 2026).

Conditions: in vivo

In the case of CCNC(=O)CC[C@H](N)C(=O)O [L-theanine, γ-glutamylethylamide], the blood-brain barrier crossing is listed as “known to cross the blood-brain barrier”.
